Results reported in patent US20240400546A1, “COMPOUNDS AND USES THEREOF” (JANSSEN PHARMACEUTICA NV, priority 2016, published 2024).

What was measured:
Details in all cases: percent of the DMSO-treated condition
[1] = target: T1, SCD5 (Homo sapiens, UniProt Q86SK9); experiment: Growth of yeast surviving solely on human SCD5; format: cell-based, yeast expressing human SCD5
T1 construct: host or cells: S. cerevisiae ole1Δ strain, plasmid pRS316 with TDH3 promoter and CYC1 terminator
T1 sequence (Q86SK9 1-330): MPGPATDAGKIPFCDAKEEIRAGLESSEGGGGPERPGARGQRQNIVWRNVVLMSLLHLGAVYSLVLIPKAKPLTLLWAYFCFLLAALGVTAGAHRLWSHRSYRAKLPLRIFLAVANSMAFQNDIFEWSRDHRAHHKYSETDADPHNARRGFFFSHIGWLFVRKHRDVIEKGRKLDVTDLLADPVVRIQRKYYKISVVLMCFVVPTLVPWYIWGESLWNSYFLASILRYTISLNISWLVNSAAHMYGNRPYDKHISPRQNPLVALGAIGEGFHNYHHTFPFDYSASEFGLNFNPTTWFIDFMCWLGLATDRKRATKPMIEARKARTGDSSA
Method: (§1) FIG. 6 is a series of graphs showing that commercial Scd inhibitors target human SCD1/SCD5 in yeast. Yeast surviving solely on yeast OLE1, or human SCD1 or SCD5, were treated with four commercial Scd inhibitors at indicated concentrations. Data are expressed as a percent of the DMSO-treated condition.
(§2) FIG. 7 is a series of graphs showing that 1,2,4-oxadiazoles target human SCD1 and SCD5. Three “SCD” strains expressing yeast OLE1 or human SCD1 or SCD5 were treated with five representative 1,2,4-oxadiazoles and a cycloheximide toxicity control at concentrations indicated on the logic x-axis. The y-axis indicates the percent of the DMSO-treated condition. […] Approximately one half of all (250) 1,2,4-oxadiazoles tested inhibited SCD1 or SCD5 in a manner that was reversed by oleic/palmitoleic acid treatment.

[2] = target: T2, yeast OLE1 (Saccharomyces cerevisiae, UniProt P21147); experiment: Growth of yeast surviving solely on yeast OLE1; format: cell-based
T2 construct: expressed in transfected cells; host or cells: S. cerevisiae ole1Δ strain (W303 pdr1Δ pdr3Δ background), plasmid pRS316 with TDH3 promoter and CYC1 terminator
T2 sequence (P21147 1-510): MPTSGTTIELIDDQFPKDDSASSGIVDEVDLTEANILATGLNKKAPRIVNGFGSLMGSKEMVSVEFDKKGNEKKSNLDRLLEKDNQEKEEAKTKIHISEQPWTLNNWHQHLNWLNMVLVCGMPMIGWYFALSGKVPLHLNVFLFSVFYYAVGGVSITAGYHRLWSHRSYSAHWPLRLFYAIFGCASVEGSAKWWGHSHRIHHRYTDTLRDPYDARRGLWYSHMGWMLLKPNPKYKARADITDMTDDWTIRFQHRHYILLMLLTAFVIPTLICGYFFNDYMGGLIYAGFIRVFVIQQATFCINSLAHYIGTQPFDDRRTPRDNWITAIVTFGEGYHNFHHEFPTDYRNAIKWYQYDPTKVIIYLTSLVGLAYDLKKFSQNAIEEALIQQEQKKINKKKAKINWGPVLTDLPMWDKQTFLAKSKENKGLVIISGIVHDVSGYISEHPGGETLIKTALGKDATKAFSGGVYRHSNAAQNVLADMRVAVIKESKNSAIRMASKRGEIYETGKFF
Method: as §1, §2

[3] = target: T3, SCD1 (Homo sapiens, UniProt O00767); experiment: Growth of yeast surviving solely on human SCD1; format: cell-based
T3 construct: host or cells: S. cerevisiae ole1Δ strain, plasmid pRS316 with TDH3 promoter and CYC1 terminator
T3 sequence (O00767 1-359): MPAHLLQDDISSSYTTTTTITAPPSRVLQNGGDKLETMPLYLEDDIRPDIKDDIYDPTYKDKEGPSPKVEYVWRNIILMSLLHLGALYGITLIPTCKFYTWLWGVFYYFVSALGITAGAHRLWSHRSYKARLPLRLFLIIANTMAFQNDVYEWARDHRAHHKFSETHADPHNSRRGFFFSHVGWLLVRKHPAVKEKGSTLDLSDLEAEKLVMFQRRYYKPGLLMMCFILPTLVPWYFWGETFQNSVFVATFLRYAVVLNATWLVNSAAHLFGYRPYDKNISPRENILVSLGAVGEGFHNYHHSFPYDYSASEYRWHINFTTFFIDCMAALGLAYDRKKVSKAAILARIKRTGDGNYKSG
Method: as §1, §2

Compound: C[C@@H]1C[C@@H]([C@H](O)CC2CC(=O)NC(=O)C2)C(=O)[C@@H](C)C1 [Cyclohexamide, cycloheximide]
- growth of SCD5-expressing yeast [1]: inhibited growth of all three strains with the same potency
- growth of Ole1-expressing yeast [2]: inhibited growth of all three strains with the same potency
- growth of SCD1-expressing yeast [3]: inhibited growth of all three strains with the same potency
